The text below walks through data of ChEMBL document CHEMBL1201862, “PubChem BioAssay data set” (2004).

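Where inhibition never reached the appropriate level, the endpoint shown equals the highest concentration tested. Otherwise, values were interpolated linearly from a five-concentration, 48-hour dose response in 96-well plates. The concentration for 50% growth inhibition is given as GI50.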 Activity calls are given as the source filed them. Cut-off read from the data, not from the text of the source: active = GI50 up to about 1.1 µM and inactive = higher. Where a SMILES comes first, the peptide text is derived from it. [ ]: non-standard residue; d: D form. The star is where a group is joined. Bn2Val = CC(C)[C@@H](C(=O)*)N(Cc1ccccc1)Cc1ccccc1; NH(3,4-diMeO-benzyl) = COc1ccc(CN*)cc1OC; NMeV = CN[C@H](C(=O)O)C(C)C

Some test systems named below: 786-0; A498; BT-549; CAKI-1; HCC 2998; HL-60; IGROV-1; K562; LOX IMVI; M14; MCF7; MOLT-4; OVCAR-3; SF-539; SN12C; TK-10; U-251; UO-31; NCI/ADR-RES; RXF 393.
Experiment in all cases: growth of human tumour cells (NCI), 48 h

`Cc1cccc(O)c1-c1nnc(CCCCCCCCc2nnc(-c3c(C)cccc3O)n2N)n1N`: the GI50 in the assay with 786-0 was 2.67 µM (inactive); with A498, > 100 µM (inactive); with BT-549 it was 15 µM (inactive); in the assay with CAKI-1, > 100 µM (inactive); in the assay with HCC 2998, > 100 µM (inactive); in the assay on HL-60, 0.139 µM (active). The GI50 with IGROV-1 is > 100 µM (inactive); with K562 it was > 100 µM (inactive); with LOX IMVI, 45.2 µM (inactive); with M14, > 39.7 µM (inactive); in the assay with MCF7 it was 55 µM (inactive); in the assay with MOLT-4, 8.41 µM (inactive). In addition, the GI50 was 50.5 µM (inactive) with OVCAR-3; > 96.4 µM (inactive) with SF-539; > 100 µM (inactive) with SN12C; > 41.4 µM (inactive) in the assay on TK-10; 23.2 µM (inactive) in the assay with U-251; 68.5 µM (inactive) in the assay with UO-31.
Consider `CCCCCCN1C(=O)CC(=O)N(CCCCCC)S1(=O)=O`, for which the GI50 in the assay on 786-0 is 18.5 µM (inactive); with A498, 14.7 µM (inactive); with CAKI-1 it was 22 µM (inactive); with HL-60 it was 24.8 µM (inactive); in the assay on IGROV-1 it was 12.4 µM (inactive); with K562, 40.6 µM (inactive). Moreover, the GI50 is 13.6 µM (inactive) in the assay on LOX IMVI; 32.4 µM (inactive) in the assay with M14; 36 µM (inactive) in the assay on MCF7; 23.3 µM (inactive) in the assay with MOLT-4; 21.7 µM (inactive) in the assay with NCI/ADR-RES; 21.4 µM (inactive) with OVCAR-3. Besides, the GI50 in the assay on RXF 393 was 16.4 µM (inactive); in the assay on SF-539, 19.8 µM (inactive); in the assay on SN12C, 17.7 µM (inactive); with TK-10, 19.1 µM (inactive); in the assay with U-251 it was 17.6 µM (inactive); in the assay on UO-31 it was 1.56 µM (inactive).
`CCC1=C(C=O)c2cc3[nH]c(cc4nc(c5c6[nH]c(cc1n2)c(C)c6C(=O)C5C(=O)OC)C(CCC(=O)OC)C4C)c(C)c3CC` (stereo unspecified): the GI50 in the assay on 786-0, in the assay with A498, in the assay with BT-549, in the assay with CAKI-1, in the assay with HCC 2998 and with HL-60 was > 100 µM (inactive) each time. In addition, the GI50 in the assay with IGROV-1, with K562, in the assay on LOX IMVI, with M14, with MCF7 and in the assay with MOLT-4 was > 100 µM (inactive) in each case. Also, the GI50 with OVCAR-3, in the assay with RXF 393, with SF-539, in the assay with SN12C, with TK-10 and in the assay on U-251 was > 100 µM (inactive) throughout. The GI50 with UO-31 is > 100 µM (inactive).
As to `CC12OC3(C(O)C1O)C(C(=O)O[C@H]3CO[Si](C)(C)C(C)(C)C)C2S(=O)(=O)c1ccccc1` (stereo partly specified), the GI50 in the assay with 786-0 is 71.1 µM (inactive); in the assay on A498, > 100 µM (inactive); in the assay on HL-60, 25.9 µM (inactive); in the assay on IGROV-1, 21 µM (inactive); in the assay on K562, 37.8 µM (inactive); in the assay on LOX IMVI, 18.7 µM (inactive). Besides, the GI50 in the assay on M14 is 51.2 µM (inactive); with MCF7 it was 36.1 µM (inactive); in the assay with MOLT-4, 23.6 µM (inactive); in the assay on NCI/ADR-RES it was 11.9 µM (inactive); with OVCAR-3, 40.6 µM (inactive); with SF-539, 58.1 µM (inactive). Moreover, the GI50 in the assay with SN12C was > 100 µM (inactive); in the assay on TK-10 it was 59.8 µM (inactive); with U-251, 86.3 µM (inactive); in the assay with UO-31, 40.8 µM (inactive).
In the case of `N#CCCC1(CCC#N)CCCCCCC(CCC#N)(CCC#N)C(O)C1O` (stereo unspecified), the GI50 in the assay with 786-0, with A498, in the assay with CAKI-1, in the assay with HCC 2998, in the assay with IGROV-1 and with K562 was > 100 µM (inactive) in each case. Moreover, the GI50 in the assay with LOX IMVI, in the assay on M14, in the assay with MCF7, in the assay on NCI/ADR-RES, in the assay with OVCAR-3 and with RXF 393 was > 100 µM (inactive) each time. The GI50 in the assay on SF-539 is > 100 µM (inactive); with SN12C, 52.2 µM (inactive); in the assay on TK-10 it was > 100 µM (inactive); in the assay on U-251 it was > 100 µM (inactive); with UO-31 it was > 100 µM (inactive).
Take `CC(NC1=NCCO1)c1cccc([N+](=O)[O-])c1` (stereo unspecified): the GI50 in the assay on 786-0, in the assay with A498, in the assay with CAKI-1, with HCC 2998, with HL-60 and in the assay on IGROV-1 was > 100 µM (inactive) throughout. Also, the GI50 is > 100 µM (inactive) with K562; > 100 µM (inactive) with LOX IMVI; > 100 µM (inactive) in the assay with M14; > 100 µM (inactive) in the assay with MCF7; 88.7 µM (inactive) in the assay on MOLT-4; > 100 µM (inactive) in the assay with NCI/ADR-RES. In addition, the GI50 in the assay on OVCAR-3, with RXF 393, in the assay with SF-539, in the assay on SN12C, in the assay with TK-10 and in the assay on U-251 was > 100 µM (inactive) in each case. Also, in the assay on UO-31, the GI50 is > 100 µM (inactive).
On to `Cc1ccc(Cc2cc(N3CCN(c4cccc(Cl)c4)CC3)nnc2C)cc1`, for which the GI50 was 45.2 µM (inactive) in the assay on 786-0; > 100 µM (inactive) in the assay with A498; > 100 µM (inactive) in the assay on BT-549; > 100 µM (inactive) with CAKI-1; > 100 µM (inactive) in the assay on M14; 76.2 µM (inactive) with MCF7. For the same molecule, the GI50 was 43.3 µM (inactive) with NCI/ADR-RES; > 100 µM (inactive) in the assay on OVCAR-3; 84.7 µM (inactive) in the assay with RXF 393; 38.1 µM (inactive) in the assay on SF-539; 56.4 µM (inactive) with SN12C; > 100 µM (inactive) with TK-10. Besides, the GI50 in the assay on U-251 was 32.7 µM (inactive); in the assay with UO-31, > 100 µM (inactive).
On to `CC(=O)CC(=O)N1CCSC1=S`, for which the GI50 with 786-0, with A498, with BT-549, in the assay on HCC 2998, with HL-60 and in the assay with IGROV-1 was > 10 µM (inactive) in each case. Besides, the GI50 with K562, in the assay with LOX IMVI, with M14, with MCF7, in the assay on MOLT-4 and in the assay with OVCAR-3 was > 10 µM (inactive) throughout. In addition, the GI50 in the assay with RXF 393, with SF-539, in the assay with SN12C, in the assay with TK-10, in the assay on U-251 and with UO-31 was > 10 µM (inactive) each time.
For `O/N=C\c1c(O)ccc2ccccc12`, the GI50 was 46.2 µM (inactive) in the assay with 786-0; 56.2 µM (inactive) with A498; 30.8 µM (inactive) in the assay on CAKI-1; 31.7 µM (inactive) in the assay on HCC 2998; 14.7 µM (inactive) in the assay on HL-60; 46.8 µM (inactive) in the assay with K562. Moreover, the GI50 in the assay on LOX IMVI was 45.8 µM (inactive); in the assay on M14 it was 68.2 µM (inactive); with MCF7, 37.8 µM (inactive); in the assay on NCI/ADR-RES it was 68.2 µM (inactive); in the assay with OVCAR-3 it was 20.2 µM (inactive); with RXF 393, 35.2 µM (inactive). In addition, the GI50 was 44 µM (inactive) with SF-539, 38.3 µM (inactive) in the assay with SN12C, 40.4 µM (inactive) in the assay on TK-10 and 51.8 µM (inactive) in the assay on U-251.
Turning to `O=C1OCC2(CO1)CC1C=CC2C1` (stereo unspecified), the GI50 in the assay with 786-0, in the assay with A498, in the assay on CAKI-1, in the assay on HCC 2998, in the assay with HL-60 and in the assay with IGROV-1 was > 100 µM (inactive) throughout. The GI50 in the assay on K562, in the assay with LOX IMVI, with M14, in the assay on MCF7, in the assay on MOLT-4 and in the assay with NCI/ADR-RES was > 100 µM (inactive) throughout. Moreover, the GI50 with OVCAR-3, in the assay with RXF 393, with SF-539, with SN12C, in the assay on TK-10 and in the assay on U-251 was > 100 µM (inactive) in each case. In addition, the GI50 in the assay on UO-31 is > 100 µM (inactive).
For the molecule `COc1ccc(CNC(=O)[C@@H]2CCCN2C(=O)[C@@H]2CCCN2C(=O)[C@H](C(C)C)N(C)C(=O)[C@@H](NC(=O)[C@H](C(C)C)N(Cc2ccccc2)Cc2ccccc2)C(C)C)cc1OC` (Bn2Val-V[NMeV]PP-{NH(3,4-diMeO-benzyl)}), the GI50 was 10.4 µM (inactive) with 786-0; 17.8 µM (inactive) with A498; 14.7 µM (inactive) with BT-549; 15.8 µM (inactive) with CAKI-1; 3.15 µM (inactive) in the assay with HL-60; 3.92 µM (inactive) in the assay on IGROV-1. Further, the GI50 in the assay with K562 was 7.55 µM (inactive); with LOX IMVI, 4.26 µM (inactive); in the assay on M14 it was 14.6 µM (inactive); with MOLT-4, 4.39 µM (inactive); with NCI/ADR-RES, 18.3 µM (inactive); with OVCAR-3 it was 12 µM (inactive). Further, the GI50 in the assay on RXF 393 is 11.1 µM (inactive); with SF-539, 17.1 µM (inactive); in the assay on SN12C, 15 µM (inactive); in the assay with TK-10, 14 µM (inactive); in the assay with U-251, 15.7 µM (inactive).
